Results reported in article PMC3891821, “Discovery of Bile Salt Hydrolase Inhibitors Using an Efficient High-Throughput Screening System” (PLoS ONE, 2014).
Counter-ions that a name gives are not always drawn.

What was measured:
Type in all cases: biochemical
[1] = biological target: T1, rBSH (recombinant bile salt hydrolase) (Ligilactobacillus salivarius, UniProt J7H3P9); assay: two-step BSH assay, amino acid released from glycocholate
T1 construct: His-tagged full-length BSH, E. coli host, Ni-NTA purified
T1 sequence (J7H3P9 2-324): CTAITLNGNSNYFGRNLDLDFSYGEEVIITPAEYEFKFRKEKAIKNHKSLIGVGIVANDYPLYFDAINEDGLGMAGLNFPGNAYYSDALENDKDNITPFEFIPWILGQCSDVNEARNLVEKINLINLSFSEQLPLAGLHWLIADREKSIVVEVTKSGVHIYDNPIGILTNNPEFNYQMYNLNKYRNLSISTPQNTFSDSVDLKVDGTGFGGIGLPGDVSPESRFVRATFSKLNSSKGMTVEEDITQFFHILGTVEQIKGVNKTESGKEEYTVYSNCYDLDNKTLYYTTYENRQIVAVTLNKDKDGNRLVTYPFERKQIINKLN
Source text: two-step BSH assay, amino acid released from glycocholate on rBSH (recombinant bile salt hydrolase)

[2] = biological target: T1, rBSH (recombinant bile salt hydrolase); assay: two-step assay, amino acid release; conditions: 37 C
[3] = biological target: T1, rBSH (recombinant bile salt hydrolase); assay: microplate precipitation assay, A600; conditions: pH 6.0, 37 C, DTT

| SMILES | inhibition at 5000 µM [1] [%] | also measured |
| --- | --- | --- |
| CN(C)[C@@H]1C(O)=C(C(N)=O)C(=O)[C@@]2(O)C(O)=C3C(=O)c4c(O)ccc(Cl)c4[C@@H](O)[C@H]3C[C@@H]12 [Demeclocycline Hydrochloride] | 92 | – |
| O=c1c(O)c(-c2ccc(O)c(O)c2)oc2c(O)c(O)cc(O)c12 [Gossypetin] | 97.3 | – |
| Cc1cc(C)nc(NS(=O)(=O)c2ccc(N)cc2)n1 [Sulfamethazine] | 48.7 | – |
| O=c1c(O)cccc2cc(O)c(O)c(O)c12 [Purpurogallin] | 83 | – |
| CC1=CC(=O)c2ccccc2C1=O [Menadione] | 87.2 | – |
| O=[N+]([O-])c1cc([As](=O)(O)O)ccc1O [Roxarsone] | – | % Inhibition ([1]; 5000 µM, sodium glycocholate, 30 min preincubation, 37 C): 98.4% |
| C[C@H](CCC(=O)NCC(=O)O)[C@H]1CC[C@H]2[C@@H]3[C@H](O)C[C@@H]4C[C@H](O)CC[C@]4(C)[C@H]3C[C@H](O)[C@]12C [sodium glycocholate] | – | two-step assay, amino acid release [2]: ascertain the amount of liberated amino acids from sodium glycocholate |
| CC(C)c1cc2c(c(O)c1O)[C@@]1(C(=O)O)CCCC(C)(C)[C@@H]1CC2 [Carnosic Acid] | 96.8 | – |
| O=C(O[C@@H]1Cc2c(O)cc(O)cc2O[C@@H]1c1ccc(O)c(O)c1)c1cc(O)c(O)c(O)c1 [Epicatechin monogallate] | 98.6 | – |
| C=C1c2cccc(O)c2C(=O)C2=C(O)[C@]3(O)C(=O)C(C(N)=O)=C(O)[C@@H](N(C)C)[C@@H]3[C@@H](O)[C@H]12 [Methacycline Hydrochloride] | 90.2 | – |
| CC1=C(C(=O)O)N2C(=O)[C@@H](NC(=O)[C@H](N)C3=CCC=CC3)[C@H]2SC1 [Cephradine] | 61.8 | – |
| O=C(/C=C/c1ccc(O)c(O)c1)OCCc1ccccc1 [Caffeic Acid Phenethyl Ester] | 99.7 | – |
| CC[C@H]1OC(=O)C[C@@H](O)[C@H](C)[C@@H](O[C@@H]2O[C@H](C)[C@@H](O[C@H]3C[C@@](C)(O)[C@@H](O)[C@H](C)O3)[C@H](N(C)C)[C@H]2O)[C@@H](CC=O)C[C@@H](C)C(=O)/C=C/C(C)=C/[C@@H]1CO[C@@H]1O[C@H](C)[C@@H](O)[C@@H](OC)[C@H]1OC [Tylosin] | 23.8 | – |
| Cc1cc2nc3c(=O)[nH]c(=O)nc-3n(C[C@H](O)[C@H](O)[C@H](O)CO)c2cc1C [Riboflavin] | – | inhibition at 1000 µM [1]: 99.3% |
| C[C@H](CCC(=O)NCCS(=O)(=O)O)[C@H]1CC[C@H]2[C@@H]3CC[C@@H]4C[C@H](O)CC[C@]4(C)[C@H]3C[C@H](O)[C@]12C [taurodeoxycholic acid] | – | microplate precipitation assay, A600 [3]: taurodeoxycholic acid was better than other tested conjugated bile salts |
| Cc1onc(-c2ccccc2Cl)c1C(=O)N[C@@H]1C(=O)N2[C@@H]1SC(C)(C)[C@@H]2C(=O)O [Cloxacillin] | 61.2 | – |
| CCC[C@@H]1C[C@@H](C(=O)N[C@@H]([C@H]2O[C@H](SC)[C@H](O)[C@@H](O)[C@H]2O)[C@@H](C)O)N(C)C1 [Lincomycin] | 67.3 | – |
| CC[C@H]1OC(=O)[C@H](C)[C@@H](O[C@H]2C[C@@](C)(OC)[C@@H](O)[C@H](C)O2)[C@H](C)[C@@H](O[C@@H]2O[C@H](C)C[C@H](N(C)C)[C@H]2O)[C@](C)(O)C[C@@H](C)C(=O)[C@H](C)[C@@H](O)[C@]1(C)O [Erythromycin] | 36.5 | – |
| C[C@H]1c2cccc(O)c2C(O)=C2C(=O)[C@]3(O)C(O)=C(C(N)=O)C(=O)[C@@H](N(C)C)[C@@H]3[C@@H](O)[C@@H]21 [Doxycycline Hydrochloride] | 92.9 | – |
| CN(C)[C@@H]1C(=O)C(C(N)=O)=C(O)[C@@]2(O)C(=O)C3=C(O)c4c(O)cccc4[C@@](C)(O)[C@H]3[C@H](O)[C@@H]12 [Oxytetracycline] | 97.4 | – |
